Values after ≈ are worked out from the molar mass of the structure shown.
How the values were obtained:
MX1 = assay: Antiproliferative activity against human MX1 cells after 72 hrs by luminescence-based cell viability assay; assay type: functional; details: MX1, 72 h
[1] = Protein binding in human plasma at 2000 ng/mL after 6 hrs by equilibrium dialysis method; assay type: ADME, cell-free; details: read-out: PPB (converted)
[2] = target: T1, Phosphatidylinositol 4,5-bisphosphate 3-kinase catalytic subunit delta isoform (Homo sapiens, UniProt O00329); assay: Inhibition of human PI3Kdelta
T1 sequence (O00329 whole entry): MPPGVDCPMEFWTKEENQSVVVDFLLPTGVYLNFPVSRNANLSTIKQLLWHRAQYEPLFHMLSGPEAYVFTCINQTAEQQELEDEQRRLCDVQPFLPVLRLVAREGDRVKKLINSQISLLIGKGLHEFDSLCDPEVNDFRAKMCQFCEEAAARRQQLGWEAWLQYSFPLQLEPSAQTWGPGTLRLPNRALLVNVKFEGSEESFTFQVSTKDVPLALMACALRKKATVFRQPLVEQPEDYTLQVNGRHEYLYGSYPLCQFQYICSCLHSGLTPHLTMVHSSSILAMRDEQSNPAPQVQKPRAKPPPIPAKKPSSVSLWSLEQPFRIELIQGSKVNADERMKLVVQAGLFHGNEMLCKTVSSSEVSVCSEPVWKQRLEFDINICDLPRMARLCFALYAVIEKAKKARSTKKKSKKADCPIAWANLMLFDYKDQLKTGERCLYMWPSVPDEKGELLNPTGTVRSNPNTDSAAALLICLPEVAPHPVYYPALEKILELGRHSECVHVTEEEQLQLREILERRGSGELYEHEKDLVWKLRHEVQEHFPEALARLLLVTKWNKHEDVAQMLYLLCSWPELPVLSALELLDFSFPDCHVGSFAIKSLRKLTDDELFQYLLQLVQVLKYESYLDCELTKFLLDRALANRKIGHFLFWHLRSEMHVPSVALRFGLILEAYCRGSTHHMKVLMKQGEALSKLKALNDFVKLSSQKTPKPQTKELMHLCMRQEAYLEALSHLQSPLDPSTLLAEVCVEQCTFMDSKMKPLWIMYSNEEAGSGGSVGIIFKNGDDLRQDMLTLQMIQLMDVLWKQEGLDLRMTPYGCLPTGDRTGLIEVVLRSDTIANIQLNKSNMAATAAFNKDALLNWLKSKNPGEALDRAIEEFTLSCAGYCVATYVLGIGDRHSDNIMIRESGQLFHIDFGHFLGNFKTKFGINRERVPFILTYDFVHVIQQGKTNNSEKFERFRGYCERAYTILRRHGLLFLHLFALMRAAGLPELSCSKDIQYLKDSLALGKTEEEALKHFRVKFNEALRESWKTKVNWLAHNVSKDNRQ

HCT-116 = assay: cells; details: Homo sapiens, HCT-116, 72 h
Description: Antiproliferative activity against human HCT116 cells after 72 hrs by luminescence-based cell viability assay

[3] = target: Vascular endothelial growth factor receptor 2 (Homo sapiens, UniProt P35968); assay: Inhibition of human VEGFR2
Sequence of Vascular endothelial growth factor receptor 2 (P35968 whole entry): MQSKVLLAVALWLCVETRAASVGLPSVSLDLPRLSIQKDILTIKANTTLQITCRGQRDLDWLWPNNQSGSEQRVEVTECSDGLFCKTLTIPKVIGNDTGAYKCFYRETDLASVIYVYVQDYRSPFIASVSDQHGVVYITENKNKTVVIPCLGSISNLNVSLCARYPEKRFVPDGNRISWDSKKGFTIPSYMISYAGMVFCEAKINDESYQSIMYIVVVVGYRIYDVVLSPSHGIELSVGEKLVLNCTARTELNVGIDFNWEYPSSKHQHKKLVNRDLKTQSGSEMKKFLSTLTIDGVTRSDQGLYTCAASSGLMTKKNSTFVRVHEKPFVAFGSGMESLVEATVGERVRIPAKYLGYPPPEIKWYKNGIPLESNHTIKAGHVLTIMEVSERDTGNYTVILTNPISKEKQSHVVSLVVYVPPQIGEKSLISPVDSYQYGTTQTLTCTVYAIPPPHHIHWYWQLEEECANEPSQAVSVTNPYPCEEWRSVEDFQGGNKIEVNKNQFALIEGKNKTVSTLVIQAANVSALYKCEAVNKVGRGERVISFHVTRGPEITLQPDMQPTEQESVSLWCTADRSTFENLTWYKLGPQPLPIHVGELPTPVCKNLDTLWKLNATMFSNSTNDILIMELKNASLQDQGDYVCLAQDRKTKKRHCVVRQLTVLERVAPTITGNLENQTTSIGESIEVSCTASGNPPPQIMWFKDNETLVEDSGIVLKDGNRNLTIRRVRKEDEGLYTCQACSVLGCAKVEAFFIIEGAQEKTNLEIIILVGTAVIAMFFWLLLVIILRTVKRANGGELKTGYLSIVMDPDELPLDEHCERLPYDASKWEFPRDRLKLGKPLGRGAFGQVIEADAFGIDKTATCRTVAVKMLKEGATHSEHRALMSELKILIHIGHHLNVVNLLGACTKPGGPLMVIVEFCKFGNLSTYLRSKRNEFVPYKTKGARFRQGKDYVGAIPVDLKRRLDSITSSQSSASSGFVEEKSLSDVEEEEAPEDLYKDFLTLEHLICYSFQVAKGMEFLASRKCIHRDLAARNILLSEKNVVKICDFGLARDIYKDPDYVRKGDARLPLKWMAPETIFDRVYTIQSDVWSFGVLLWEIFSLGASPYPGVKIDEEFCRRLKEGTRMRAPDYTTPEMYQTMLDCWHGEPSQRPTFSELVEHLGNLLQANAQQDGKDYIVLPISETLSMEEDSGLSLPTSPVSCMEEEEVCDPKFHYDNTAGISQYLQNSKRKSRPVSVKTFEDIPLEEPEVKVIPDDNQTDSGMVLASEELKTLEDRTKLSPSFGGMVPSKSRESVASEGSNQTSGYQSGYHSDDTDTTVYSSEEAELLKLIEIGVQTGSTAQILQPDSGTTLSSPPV

HT-29 = assay: Antiproliferative activity against human HT-29 cells after 72 hrs by luminescence-based cell viability assay; assay type: functional; details: HT-29, 72 h
[4] = target: Serine/threonine-protein kinase pim-1 (Homo sapiens, UniProt P11309); assay: Inhibition of human PIM1
Sequence of Serine/threonine-protein kinase pim-1 (P11309 whole entry): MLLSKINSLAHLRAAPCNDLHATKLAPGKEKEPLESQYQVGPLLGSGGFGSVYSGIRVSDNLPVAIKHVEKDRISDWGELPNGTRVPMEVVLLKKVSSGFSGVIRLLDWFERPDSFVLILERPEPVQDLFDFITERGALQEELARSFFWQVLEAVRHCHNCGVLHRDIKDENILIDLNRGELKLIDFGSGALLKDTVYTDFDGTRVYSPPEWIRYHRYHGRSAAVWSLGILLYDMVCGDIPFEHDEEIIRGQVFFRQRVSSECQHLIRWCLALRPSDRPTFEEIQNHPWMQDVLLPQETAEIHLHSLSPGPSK

A549 = assay: Antiproliferative activity against human A549 cells after 72 hrs by luminescence-based cell viability assay; assay type: functional; details: A549, 72 h
[5] = target: T2, Serine/threonine-protein kinase Nek2 (Homo sapiens, UniProt P51955)
T2 sequence (P51955 whole entry): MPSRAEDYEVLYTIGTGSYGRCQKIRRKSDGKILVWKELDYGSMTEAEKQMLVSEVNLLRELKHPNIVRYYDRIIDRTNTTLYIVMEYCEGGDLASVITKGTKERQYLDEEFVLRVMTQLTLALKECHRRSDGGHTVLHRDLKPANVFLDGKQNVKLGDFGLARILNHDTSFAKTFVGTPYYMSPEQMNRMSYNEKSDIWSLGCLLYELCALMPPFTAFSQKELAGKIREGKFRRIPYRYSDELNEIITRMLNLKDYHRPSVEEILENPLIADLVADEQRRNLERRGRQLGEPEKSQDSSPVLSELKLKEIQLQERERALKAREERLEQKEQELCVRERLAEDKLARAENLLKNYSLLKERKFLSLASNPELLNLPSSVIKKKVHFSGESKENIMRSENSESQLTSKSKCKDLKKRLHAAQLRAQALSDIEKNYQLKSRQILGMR

[6] = target: Phosphatidylinositol 4,5-bisphosphate 3-kinase catalytic subunit gamma isoform (Homo sapiens, UniProt P48736); assay: Inhibition of human PI3Kgamma
SK-OV-3 = assay: Antiproliferative activity against human SKOV3 cells after 72 hrs by luminescence-based cell viability assay; assay type: functional; details: SK-OV-3, 72 h
[7] = target: Platelet-derived growth factor receptor beta (Homo sapiens, UniProt P09619); assay: Inhibition of human PDGFR1beta
Sequence of Platelet-derived growth factor receptor beta (P09619 whole entry): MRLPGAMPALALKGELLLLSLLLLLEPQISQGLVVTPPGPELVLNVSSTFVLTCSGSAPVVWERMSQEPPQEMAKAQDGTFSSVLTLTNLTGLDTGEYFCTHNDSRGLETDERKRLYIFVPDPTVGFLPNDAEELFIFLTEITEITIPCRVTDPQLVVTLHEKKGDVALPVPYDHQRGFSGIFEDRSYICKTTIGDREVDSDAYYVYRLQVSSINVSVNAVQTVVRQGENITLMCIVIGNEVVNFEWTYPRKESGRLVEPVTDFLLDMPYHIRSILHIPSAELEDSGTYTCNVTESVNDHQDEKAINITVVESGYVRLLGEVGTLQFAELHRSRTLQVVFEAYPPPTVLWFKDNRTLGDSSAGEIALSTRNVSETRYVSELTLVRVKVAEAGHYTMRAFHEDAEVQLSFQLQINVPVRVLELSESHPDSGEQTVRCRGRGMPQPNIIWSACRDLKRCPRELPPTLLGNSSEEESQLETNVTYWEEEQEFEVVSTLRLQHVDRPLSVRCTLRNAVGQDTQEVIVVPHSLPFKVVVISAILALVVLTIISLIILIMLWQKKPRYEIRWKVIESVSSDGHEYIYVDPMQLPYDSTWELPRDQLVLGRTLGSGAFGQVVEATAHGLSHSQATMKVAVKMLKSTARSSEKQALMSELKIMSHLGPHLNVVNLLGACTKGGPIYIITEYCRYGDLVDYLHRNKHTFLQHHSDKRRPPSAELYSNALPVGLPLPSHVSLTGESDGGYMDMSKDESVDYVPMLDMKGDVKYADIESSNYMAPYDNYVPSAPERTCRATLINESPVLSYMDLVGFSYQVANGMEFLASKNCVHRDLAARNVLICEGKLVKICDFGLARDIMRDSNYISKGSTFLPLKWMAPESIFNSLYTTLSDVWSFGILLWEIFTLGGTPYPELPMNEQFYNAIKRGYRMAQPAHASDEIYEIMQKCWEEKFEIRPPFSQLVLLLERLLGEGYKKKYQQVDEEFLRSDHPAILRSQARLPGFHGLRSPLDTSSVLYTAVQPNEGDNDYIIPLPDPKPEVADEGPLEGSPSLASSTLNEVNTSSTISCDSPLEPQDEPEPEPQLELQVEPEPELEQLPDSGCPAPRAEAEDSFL

COLO 205 = assay: Antiproliferative activity against human COLO205 cells after 72 hrs by luminescence-based cell viability assay; assay type: functional; details: COLO 205, 72 h
[8] = target: Serine/threonine-protein kinase PLK3 (Homo sapiens, UniProt Q9H4B4); assay: biochemical
Sequence of Serine/threonine-protein kinase PLK3 (Q9H4B4 whole entry): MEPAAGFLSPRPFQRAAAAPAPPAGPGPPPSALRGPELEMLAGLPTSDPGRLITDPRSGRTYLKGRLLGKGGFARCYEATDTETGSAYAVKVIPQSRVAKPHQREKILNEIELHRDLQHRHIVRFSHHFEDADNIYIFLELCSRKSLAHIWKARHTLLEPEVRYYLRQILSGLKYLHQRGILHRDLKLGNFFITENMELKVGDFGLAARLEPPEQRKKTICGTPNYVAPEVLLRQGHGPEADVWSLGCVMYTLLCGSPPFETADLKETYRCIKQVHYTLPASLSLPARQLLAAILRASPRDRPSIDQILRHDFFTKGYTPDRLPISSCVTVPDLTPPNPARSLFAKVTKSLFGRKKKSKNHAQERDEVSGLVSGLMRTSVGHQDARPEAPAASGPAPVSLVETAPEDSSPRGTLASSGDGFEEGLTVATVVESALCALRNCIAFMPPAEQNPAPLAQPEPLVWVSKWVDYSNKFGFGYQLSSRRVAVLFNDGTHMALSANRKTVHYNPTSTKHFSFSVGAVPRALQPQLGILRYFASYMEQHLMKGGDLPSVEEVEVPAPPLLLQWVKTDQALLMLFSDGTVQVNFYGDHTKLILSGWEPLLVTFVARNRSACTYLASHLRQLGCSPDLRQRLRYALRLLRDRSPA
Description: Inhibition of full length human PLK3 expressed in baculovirus-infected Trichoplusia ni cells by scintillation proximity assay

[9] = Solubility in 0.05 M phosphate buffer at 200 uM at pH 7.4 after 15 mins by HPLC; assay type: physicochemical
[10] = target: T3, NUAK family SNF1-like kinase 1 (Homo sapiens, UniProt O60285); assay: Inhibition of human Nuak1
T3 sequence (O60285 whole entry): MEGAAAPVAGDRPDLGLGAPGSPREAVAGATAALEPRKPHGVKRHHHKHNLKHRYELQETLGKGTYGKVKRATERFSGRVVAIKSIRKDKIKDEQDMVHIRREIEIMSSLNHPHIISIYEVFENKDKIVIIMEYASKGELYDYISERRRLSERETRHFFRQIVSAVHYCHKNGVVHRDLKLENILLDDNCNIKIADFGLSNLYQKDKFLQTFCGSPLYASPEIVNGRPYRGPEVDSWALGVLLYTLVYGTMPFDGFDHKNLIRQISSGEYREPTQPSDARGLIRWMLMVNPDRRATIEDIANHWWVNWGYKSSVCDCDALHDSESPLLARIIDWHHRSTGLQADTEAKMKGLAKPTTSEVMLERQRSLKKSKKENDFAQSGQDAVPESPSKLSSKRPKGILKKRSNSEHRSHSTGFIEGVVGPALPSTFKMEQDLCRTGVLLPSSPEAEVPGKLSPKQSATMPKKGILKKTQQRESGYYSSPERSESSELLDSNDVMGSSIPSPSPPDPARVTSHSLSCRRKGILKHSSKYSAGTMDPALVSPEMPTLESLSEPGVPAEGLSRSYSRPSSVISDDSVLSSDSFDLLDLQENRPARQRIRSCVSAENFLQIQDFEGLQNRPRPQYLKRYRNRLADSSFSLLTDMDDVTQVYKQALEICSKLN

[11] = target: Serine/threonine-protein kinase PLK1 (Homo sapiens, UniProt P53350); assay: biochemical
Sequence of Serine/threonine-protein kinase PLK1 (P53350 whole entry): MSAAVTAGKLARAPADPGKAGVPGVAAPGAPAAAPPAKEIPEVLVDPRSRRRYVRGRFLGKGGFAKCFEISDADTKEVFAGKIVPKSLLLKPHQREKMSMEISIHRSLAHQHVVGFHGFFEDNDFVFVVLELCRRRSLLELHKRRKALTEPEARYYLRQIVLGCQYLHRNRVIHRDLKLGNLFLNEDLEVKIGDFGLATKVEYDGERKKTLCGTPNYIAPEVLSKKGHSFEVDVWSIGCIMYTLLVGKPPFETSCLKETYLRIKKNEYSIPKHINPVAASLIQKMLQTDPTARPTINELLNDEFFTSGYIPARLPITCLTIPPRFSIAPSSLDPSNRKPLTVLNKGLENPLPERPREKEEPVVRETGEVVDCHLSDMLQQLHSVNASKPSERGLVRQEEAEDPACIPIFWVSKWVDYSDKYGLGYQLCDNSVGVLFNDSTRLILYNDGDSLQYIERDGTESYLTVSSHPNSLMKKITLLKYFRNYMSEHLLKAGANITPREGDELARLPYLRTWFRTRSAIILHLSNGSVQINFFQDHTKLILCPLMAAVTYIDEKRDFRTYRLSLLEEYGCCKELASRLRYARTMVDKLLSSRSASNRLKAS
Description: Inhibition of human PLK1 kinase domain expressed in baculovirus-infected Trichoplusia ni cells by scintillation proximity assay

| SMILES | fraction unbound at 6 h, 2000 ng/mL [1] | IC50 (HCT-116) [nM] | IC50 [8] [nM] | solubility at 0.25 h, 200 µM [9] [µM] | IC50 [11] [nM] | further results |
| --- | --- | --- | --- | --- | --- | --- |
| CC(Oc1cc(-n2cnc3ccc(OC4CCN(C)CC4)cc32)sc1C(N)=O)c1ccccc1C(F)(F)F (single isomer, unassigned) | 0.052 | 12 | 270 | 179 (≈ 97.5 µg/mL) |  | IC50 (MX1): 10 nM; IC50 [2]: 530 nM; IC50 [3]: 800 nM; IC50 (HT-29): 3 nM; IC50 [4]: 340 nM; IC50 (A549): 14 nM; IC50 [5]: 25 nM; IC50 [6]: 390 nM; IC50 (SK-OV-3): 32 nM; IC50 [7]: 110 nM; IC50 (COLO 205): 5 nM; IC50 [10]: 840 nM |
| CC(Oc1cc(-n2cnc3ccc(OCCCN(C)C)cc32)sc1C(N)=O)c1ccccc1Cl (single isomer, unassigned) | 0.026 | 32 |  | 161 (≈ 80.3 µg/mL) |  |  |
| C[C@@H](Oc1cc(-n2cnc3ccc(OC[C@H](O)CN4CCCC4)cc32)sc1C(N)=O)c1ccccc1Cl (single isomer, unassigned) | 0.038 | 45 |  | 170 (≈ 92 µg/mL) |  |  |
| CC(Oc1cc(-n2cnc3ccc(OC4CCNCC4)cc32)sc1C(N)=O)c1ccccc1C(F)(F)F (single isomer, unassigned) | 0.034 | 15 |  | 104 (≈ 55.2 µg/mL) |  |  |
| CC(Oc1cc(-n2cnc3ccc(O[C@H]4CCCN(C)CC4)cc32)sc1C(N)=O)c1ccccc1Cl (single isomer, unassigned) | 0.031 | 17 |  | ≥ 200 |  |  |
| CC(Oc1cc(-n2cnc3ccc(O[C@@H]4CCCN(C)CC4)cc32)sc1C(N)=O)c1ccccc1Cl (single isomer, unassigned) | 0.02 | 13 |  | 200 (≈ 105 µg/mL) |  |  |
| CC(Oc1cc(-n2cnc3ccc(OCC4CCN(C)CC4)cc32)sc1C(N)=O)c1ccccc1Cl (single isomer, unassigned) [GSK-571989A] | 0.021 | 34 | 1100 | ≥ 172 | 6 |  |
| COc1ccc2ncn(-c3cc(O[C@H](C)c4ccccc4Cl)c(C(N)=O)s3)c2c1 [GSK-317314A] | 0.005 | 321 | 35 | 3 (≈ 1.28 µg/mL) | 1 |  |

Continued, in another order:

| fraction unbound at 6 h, 2000 ng/mL [1] | IC50 (HCT-116) [nM] | IC50 [8] [nM] | solubility at 0.25 h, 200 µM [9] [µM] | IC50 [11] [nM] | SMILES | further results |
| --- | --- | --- | --- | --- | --- | --- |
| 0.023 | 30 | 550 | 109 (≈ 60.9 µg/mL) | 7 | CC(Oc1cc(-n2cnc3ccc(OCC4CCN(C)CC4)cc32)sc1C(N)=O)c1ccccc1C(F)(F)F (single isomer, unassigned) [GSK-326090A] |  |
| 0.085 | 11 | 630 | ≥ 190 |  | CC(Oc1cc(-n2cnc3ccc(OC4CCN(C)CC4)cc32)sc1C(N)=O)c1ccccc1Cl (single isomer, unassigned) [GSK-579289A] | IC50 (MX1): 9 nM; IC50 [2]: 440 nM; IC50 [3]: 1200 nM; IC50 (HT-29): 3 nM; IC50 [4]: 310 nM; IC50 (A549): 11 nM; IC50 [5]: 21 nM; IC50 (SK-OV-3): 11 nM; IC50 [7]: 420 nM; IC50 (COLO 205): 5 nM; IC50 [10]: 2000 nM |
|  | 73 | 61 | 15 (≈ 7.32 µg/mL) | 1 | CC(Oc1cc(-n2cnc3ccc(OC[C@@H](O)CO)cc32)sc1C(N)=O)c1ccccc1Cl (single isomer, unassigned) [GSK-978744A] |  |
|  | 994 | 44 |  |  | COc1cc2ncn(-c3cc(O[C@@H](C)c4ccccc4Cl)c(C(N)=O)s3)c2cc1OC [GSK-237700A] |  |
|  | 25 | 6 | 2 (≈ 0.916 µg/mL) |  | COc1cc2ncn(-c3cc(O[C@H](C)c4ccccc4Cl)c(C(N)=O)s3)c2cc1OC [GSK-237701A] |  |
| 0.005 | 476 | 41 | 1 (≈ 0.461 µg/mL) | 3 | COc1ccc2ncn(-c3cc(O[C@H](C)c4ccccc4C(F)(F)F)c(C(N)=O)s3)c2c1 [GSK-317315A] |  |
|  | 1140 | 9 |  |  | COc1cc2ncn(-c3cc(OCc4ccccc4Cl)c(C(N)=O)s3)c2cc1OC [GW852849X] |  |
